Structures can show the parent of a compound that is named as a salt.
What was measured:
[1] = target: T1, recombinant human 5-HT4 receptor (Homo sapiens, UniProt Q13639); assay: Determination of EC50 values for 5-HT4 receptor (CHO cells, pCRE-Luc reporter); format: cell-based; settings: luciferase reporter, 4 hours incubation, read-out: 5-HT4 receptor agonistic binding in-vitro EC50
T1 construct: expressed in transfected cells
Method: A stable CHO cell line expressing recombinant human 5-HT4 receptor and pCRE-Luc reporter system was used for cell-based assay. The assay offers a non-radioactive based approach to determine binding of a compound to GPCRs. In this specific assay, the level of intracellular cyclic AMP, which is modulated by activation, or inhibition of the receptor is measured. The recombinant cells harbor luciferase reporter gene under the control of cAMP response element.
The above cells were grown in 96 well clear bottom white plates in Hams F12 medium containing 10% fetal bovine serum (FBS). Prior to the addition of compounds or standard agonist, cells were serum starved overnight. Increasing concentrations of test compounds were added in OptiMEM medium to the cells. The incubation was continued at 37° C. in CO2 incubator for 4 hours. Medium was removed and cells were washed with phosphate buffered saline. The cells were lysed and luciferase activity was measured in a Luminometer. Luminescence units were plotted against the compound concentrations using Graphpad software. EC50 values of the compounds were defined as the concentration required in stimulating the luciferase activity by 50%.

[2] = Rodent brain penetration study; format: in vivo, Male Wistar rats; settings: male, Wistar, brain and plasma; rat, 3 mg/kg oral (gavage); read-out: Single dose Brain Penetration (Cb/Cp)
Method: Male Wistar rats (225±25 grams) were used as experimental animals. Three animals were housed in each cage. Animals were given water and food ad libitum throughout the experiment and maintained on a 12 hours light/dark cycle.
Brain penetration was determined in discrete manner in rats. One day prior to dosing day, male wistar rats (225-250 grams) were acclimatized. After acclimatization the rats were grouped according to their weight. In each group, 3 animals were kept in individual cage and allowed free access to food and water. At each time point (0.50, 1, and 2 hours) n=3 animals were used.
The compounds of formula (I) were suitably preformulated and administered orally at (free base equivalent) 3 mg/kg. Blood samples were removed via, cardiac puncture by using isoflurane anesthesia. The animals were sacrificed to collect brain tissue. Plasma was separated and brain samples were homogenized and stored frozen at −20° C. until analysis. The concentrations of the compounds of formula (I) in plasma and brain were determined using LC-MS/MS method.
The compounds of formula (I) were quantified in plasma and brain homogenate by qualified LC-MS/MS method using suitable extraction technique. The compounds of formula (I) were quantified in the calibration range of 1-500 ng/mL in plasma and brain homogenate. Study samples were analyzed using calibration samples in the batch and quality control samples spread across the batch. Extent of brain-plasma ratio was calculated (Cb/Cp).

[3] = Rodent pharmacokinetic study; format: in vivo, Male wistar rats; settings: male, Wistar, plasma, rat; for bioavailability: 3 mg/kg oral vs 1 mg/kg intravenous
Method: Male wistar rats (225=25 grams) were used as experimental animals. Three to five animals were housed in each cage. Two days prior to dosing day, male wistar rats (225-250 grams) were anesthetized with isoflurane for surgical placement of jugular vein catheter. Animals were fasted over night before oral dosing (p.o) and food pellets were allowed 2 hours post dosing, whereas during intravenous dosing food and water were provided as ad libitum. Three rats were dosed with compounds of formula (I) (3 mg/kg) orally and intravenously (1 mg/kg).
At each time point blood was collected through jugular vein and immediately replenish with an equivalent volume of normal saline from freely moving rats. Collected blood was transferred into a labeled eppendr off containing 10 μL of heparin as anticoagulant. Typically blood samples were collected as following time points: Pre dose, 0.08 (only i.v.), 0.25, 0.5, 1, 2, 4, 6, 8, and 24 hours post
dose (n=3). Blood was centrifuged at 4000 rpm for 10 minutes. Plasma was prepared and stored frozen at −20° C. until analysis. The concentrations of the compounds of formula (I) were quantified in plasma by qualified LC-MS/MS method using suitable extraction technique. The compounds of formula (I) were quantified in the calibration range around 2-2000 ng/mL in plasma. Study samples were analyzed using calibration samples in the batch and quality control samples spread across the batch.
Pharmacokinetic parameters Cmax, Tmax, AUCt, T1/2 and Bioavailability were calculated by non-compartmental model using standard non-compartmental model by using WinNonLin 5.0.1 or Phoenix WinNonlin 6.2 version Software package.

[4] = tested on: Male Wistar rats; assay: Object recognition task model; format: in vivo; settings: rat, p.o.
Method: The cognition enhancing properties of compounds of this invention were estimated by using this model.
Male Wistar rats (230-280 grams) were used as experimental animals. Four animals were housed in each cage. Animals were kept on 20% food deprivation before one day and given water ad libitum throughout the experiment and maintained on a 12 hours light/dark cycle. Also the rats were habituated to individual arenas for 1 hour in the absence of any objects.
One group of 12 rats received vehicle (1 mL/Kg) orally and another set of animals received compound of the formula (I) either orally or i.p., before one hour of the familiar (T1) and choice trial (T2).
The experiment was carried out in a 50×50×50 cm open field made up of acrylic. In the familiarization phase, (T1), the rats were placed individually in the open field for 3 minutes, in which two identical objects (plastic bottles, 12.5 cm height×5.5 cm diameter) covered in yellow masking tape alone (a1 and a2) were positioned in two adjacent corners, 10 cms from the walls. After 24 hours of the (T1) trial for long-term memory test, the same rats were placed in the same arena as they were placed in T1 trial. Choice phase (T2) rats were allowed to explore the open field for 3 minutes in presence of one familiar object (a3) and one novel object (b) (Amber color glass bottle, 12 cm high and 5 cm in diameter). Familiar objects presented similar textures, colors and sizes. During the T1 and T2 trial, explorations of each object (defined as sniffing, licking, chewing or having moving vibrissae whilst directing the nose towards the object at a distance of less than 1 cm) were recorded separately by stopwatch. Sitting on an object was not regarded as exploratory activity, however, it was rarely observed.
T1 is the total time spent exploring the familiar objects (a1+a2).
T2 is the total time spent exploring the familiar object and novel object (a3+b).
The object recognition test was performed as described by Behaviour Brain Research, 31 (1988), 47-59.

[5] = tested on: Scopolamine Induced amnesia; assay: Radial arm maze; format: in vivo, rats; settings: p.o.
Text: The cognition enhancing properties of compounds of formula (I) of this invention were estimated by using this model. Radial arm maze consists of a central hub of 45 cm diameter. Each arm was of dimension 42.5×15×24 cm. The maze was elevated to a height of 1 m above the ground. The animals were placed on a restricted diet until they reached approximately 85% of their free feeding weight. During this diet restriction period animals were habituated to the novel feed (pellets). Once the rats reached approximately 85% of their free feeding weight rats were habituated to the maze on the 1^St and 2nd day. […] Animals were randomized on day 2. On the subsequent days the treatment was given as per the allotment. Each animal was introduced into the maze individually for a period of 10 minutes. The arms were baited only once and the animal had to learn the rule that repeated arm entries would not be rewarded. The trial ended once the rat had visited 16 arms or 10 minutes were over or all the pellets were eaten. The arm entries were recorded using the software. Once the trial was over the rat was removed and the maze was cleaned using soap water.

[6] = tested on: sAPPα; assay: Estimation of mice brain cortical sAPPα levels (ELISA); format: in vivo; settings: 0.1 and 10 mg/kg s.c., single injection, 60 minutes
Method: 1. […] 2. […] 3. […] 4. […] 5. […] Statistical analyses were performed using the Graph Pad Prism (Version 4). […] Values were compared between the different groups by using unpaired t test.

T1 sequence (Q13639 whole entry): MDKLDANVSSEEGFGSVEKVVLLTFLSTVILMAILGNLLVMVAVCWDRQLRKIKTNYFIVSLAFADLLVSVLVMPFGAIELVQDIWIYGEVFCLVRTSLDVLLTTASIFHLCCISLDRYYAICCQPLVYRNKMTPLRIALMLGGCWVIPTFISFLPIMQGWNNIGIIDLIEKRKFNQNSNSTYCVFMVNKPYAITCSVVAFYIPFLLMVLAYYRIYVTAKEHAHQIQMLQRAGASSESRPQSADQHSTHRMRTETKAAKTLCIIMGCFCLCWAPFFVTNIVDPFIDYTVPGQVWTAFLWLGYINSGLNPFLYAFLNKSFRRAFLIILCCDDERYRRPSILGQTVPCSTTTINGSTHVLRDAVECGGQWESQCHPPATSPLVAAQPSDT

Structure (SMILES)	EC50 [1] [nM]	Kp [2]	AUC(0-t) ([3]; 1 mg/kg intravenous (bolus)) [ng·h/mL]	half-life ([3]; 1 mg/kg intravenous (bolus)) [min]	AUC(0-t) ([3]; 3 mg/kg oral (gavage)) [ng·h/mL]	Cmax ([3]; 3 mg/kg oral (gavage)) [ng/mL]	Tmax ([3]; 3 mg/kg oral (gavage)) [min]	half-life ([3]; 3 mg/kg oral (gavage)) [min]	bioavailability [3] [%]	Exploration time mean ± S.E.M, Familiar object ([4]; 1 mg/kg) [s]	Exploration time mean ± S.E.M, Novel object ([4]; 1 mg/kg) [s]	Inference ([4]; 1 mg/kg)	Exploration time mean ± S.E.M, Familiar object ([4]; 0.3 mg/kg) [s]	Exploration time mean ± S.E.M, Novel object ([4]; 0.3 mg/kg) [s]	Inference ([4]; 0.3 mg/kg)	Reversal of Scopolamine Induced amnesia - Effective dose range [5]	increase of mice brain cortical sAPPα levels in comparison with control group [6]
CC(C)n1cc2cccc(C(=O)NCC3CCN(CC4CCOCC4)CC3)c2n1 [Example 1, N—[(N-tetrahydropyran-4-ylmethyl)piperidin-4-ylmethyl]-2-isopropyl-2H-indazole-7-carboxamide fumarate]	≤ 1	0.98 ± 0.34	287 ± 40	66 ± 6	212 ± 46	107 ± 22	25.2 ± 8.4	90	25 ± 5	8.51 ± 1.35	15.51 ± 1.37	Active					
CCn1cc2cccc(C(=O)NCC3CCN(CC4CCOCC4)CC3)c2n1.O=C(O)/C=C/C(=O)O [Example 2, N—[(N-tetrahydropyran-4-ylmethyl)piperidin-4-ylmethyl]-2-ethyl-2H-indazole-7-carboxamide fumarate]	≤ 1	1 ± 0.15	145 ± 18	102 ± 30	190 ± 43	223 ± 118	19.8 ± 8.4	66 ± 36	44 ± 10				7.21 ± 1.99	13.10 ± 1.78	Active	0.3 mg/kg, p.o.	
COCCCN1CC2C(CNC(=O)c3cccc4cn(C(C)C)nc34)C2C1.O=C(O)C(=O)O (stereo not shown) [Example 3, N—[N-(3-methoxypropyl)-3-azabicyclo[3.1.0]hexane-6-ylmethyl]-2-isopropyl-2H-indazole-7-carboxamide oxalate]	1.1 to 5	0.96 ± 0.12	397 ± 28	54 ± 6	560 ± 117	467 ± 37	19.8 ± 8.4	48 ± 6	47 ± 10	5.67 ± 1.15	14.26 ± 1.64	Active				3 mg/kg, p.o.	25-30%
CC(C)n1cc2cccc(C(=O)NCC3CCN(CC(C)(C)O)CC3)c2n1.O=C(O)C(O)C(O)C(=O)O [Example 32, N—[N-(2-hydroxy-2-methylpropyl)piperidin-4-ylmethyl]-2-isopropyl-2H-indazole-7-carboxamide L(+) Tartarate]	≤ 1	0.52 ± 0.08	281 ± 6	72 ± 6	155 ± 3	110 ± 8	30	48	18				7.79 ± 1.27	17.98 ± 2.41	Active	0.3 mg/kg, p.o.	
